Measurements as given in patent US6464839B1, “Beta-elemene, method to prepare the same and uses thereof” (Yuan da International Group Limited, priority 1997, dated 2002).

Assays:
cerebral neuroglioma = test: Cerebral neuroglioma, murine sub-renal capsule model; assay type: in vivo
From the text: (D) Neuroglioma: It was indicated in the pharmacodynamic study of cerebral neuroglioma using murine sub-renal capsule model that the inhibition rate was 50-70%.

[1] = Side effects in animal pharmacodynamic studies (bone marrow, white blood cell count); assay type: in vivo
[2] = Passage through the brain-blood barrier; assay type: in vivo; settings: work of the Department of Embryology, Dalian Medical University
[3] = system: thalamic glioblastoma; brain metastasis of lung cancer; test: Treatment of patients with brain tumors with beta-elemene emulsive injection; assay type: in vivo, human
Method: In two instances, patients at the Second Affiliated Hospital of the Dalian Medical University were treated with the beta-elemene composition as an emulsive injection. The medical records were kept at that hospital.
The patient was hospitalized for surgery in July 1995. […] A beta-elemene emulsive injection was employed through 600 ml cervical artery intubation and 400 ml intravenous drip alternately once per day.
Due to the lung metastasis and the age of the patient, surgery was difficult to perform. The patient was hospitalized in mid November 1996.
The patient was treated with beta-elemene as prepared herein. […] In the middle of December 1996 the patient had another CT scan.

[4] = system: murine Ehrlich ascites carcinoma; settings: material with beta-elemene 65%, gamma and delta-elemene 20%, impurities 15%; cited from earlier work
[5] = system: rat ascitic reticulum cell sarcoma; settings: material with beta-elemene 65%, gamma and delta-elemene 20%, impurities 15%; cited from earlier work
[6] = material with beta-elemene 65%, gamma and delta-elemene 20%, impurities 15%; cited from earlier work
S180 solid tumor = test: S180 solid tumor, animal pharmacodynamic study; settings: injection
S180 ascites cancer = test: S180 ascites cancer, animal pharmacodynamic study; settings: intra-peritoneal injection
hepatic solid tumor = test: Hepatic solid tumor, animal pharmacodynamic study
EAC = EAC ascites carcinoma, animal pharmacodynamic study; settings: EAC ascites cancer, intra-peritoneal injection
L1210 leukemia = test: Murine leukemia L1210, animal pharmacodynamic study; settings: injection
[7] = system: hepatic ascites carcinoma; test: Hepatic ascites carcinoma, animal pharmacodynamic study
[8] = Patient I, thalamic glioblastoma

With `C=CC1(C)CCC(C(=C)C)CC1C(=C)C` (stereo not drawn) [beta-elemene, 1-methyl-1-vinyl-2,4-diisoprotenyl-cyclohexane] the inhibition rate (cerebral neuroglioma) was 50-70%, the “bone marrow inhibition or reduction of white blood cell count” value [1] was “no measurable bone marrow inhibition or reduction of white blood cell count” and the “ability to pass through the brain-blood barrier (BBB)” value [2] was “able to pass through the brain-blood barrier (BBB)”. The “survival with the tumor” value [3, 8] was 11 months, the “tumor size on CT scan” value [3, 8] was “no apparent reduction in tumor size” and the “growth of the tumor” value ([3]; Patient I, thalamic glioblastoma, cervical artery intubation and intravenous drip alternately once per day) was “quickly controlled”. For the same molecule, the “prolongation of the life of the patient” value ([3]; Patient II, based upon previous experience with patients at that stage of illness) was “more than 4 months”, the “tumor size on CT scan” value ([3]; Patient II, lung cancer with multiple metastasis to the brain, about one month of treatment) was “The size of the tumor was reduced” and the anti-tumor activity [4] was “marked anti-tumor activity”. The anti-tumor activity [5] was “marked anti-tumor activity”, the “side effects during treatment” value [6] was “Diarrhea and weight loss” and the inhibition rate (S180 solid tumor) was 33-59%. The life prolongation rate (S180 ascites cancer) was 90-321%, the inhibition rate (hepatic solid tumor) was 10-30% and the life prolongation rate (EAC) was 85-310%. The life prolongation rate (L1210 leukemia) was 47-289% and the life prolongation rate [7] was 103-224%.
